The values that follow come from ChEMBL document CHEMBL1201862, “PubChem BioAssay data set” (2004).

Among the test systems are ACHN; BT-549; CCRF-CEM; COLO 205; HCT-116; HL-60; K562; LOX IMVI; MDA-MB-231; Malme-3M; NCI-H460; NCI-H522; OVCAR-3; RXF 393; SK-MEL-2; SK-MEL-5; SK-OV-3; SNB-19; SW-620; TK-10.
Common to all, as to test: DTP human tumour cell line panel, 48 h

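Step 1: Grow cells in 96-well plates. Step 2: Expose to compound for 48 hours at 5 concentrations. Step 3: Interpolate endpoints linearly; if unreached, use highest concentration. The concentration for 50% growth inhibition is given as GI50.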 The source made the active and inactive calls. No stated cut-off is given here; in the data, active = GI50 up to about 1.1 µM and inactive = higher.

Broadly, the GI50 is the concentration at which growth is held to half of that of the control. `CC(C)=CCC[C@](C)(O[C@@H]1O[C@H](CO)[C@@H](O)[C@H](O)[C@H]1O)[C@H]1CC[C@]2(C)[C@@H]1[C@H](O)C[C@@H]1[C@@]3(C)CC[C@H](O)C(C)(C)[C@@H]3[C@@H](O[C@@H]3O[C@H](CO)[C@@H](O)[C@H](O)[C@H]3O)C[C@]12C` [GINSENOSIDE RG1]: the GI50 in the test on ACHN, in the test with BT-549, with CCRF-CEM, in the test on COLO 205, in the test on HCT-116 and in the test with HL-60 was > 100 µM (inactive) in each case. For the same molecule, the GI50 with K562, in the test with LOX IMVI, in the test with MDA-MB-231, in the test on Malme-3M, in the test on NCI-H460 and with NCI-H522 was > 100 µM (inactive) throughout. For the same molecule, the GI50 with OVCAR-3, with RXF 393, in the test on SK-MEL-2, with SK-MEL-5, in the test with SK-OV-3 and with SNB-19 was > 100 µM (inactive) throughout. Also, the GI50 in the test on SW-620 and in the test with TK-10 was > 100 µM (inactive) throughout.

Regarding `CSCCCNC(=O)c1csc([C@@H](CSC)NC(=O)CCNC(=O)[C@@H](NC(=O)OCC(Br)(Br)Br)C(C)O)n1` (stereo not given in full), the GI50 in the test on ACHN, in the test on BT-549, with CCRF-CEM, in the test with COLO 205, with HCT-116 and in the test on HL-60 was > 100 µM (inactive) throughout. Also, the GI50 with K562, in the test on LOX IMVI, in the test with MDA-MB-231, with Malme-3M, in the test on NCI-H460 and in the test on NCI-H522 was > 100 µM (inactive) throughout. Further, the GI50 in the test on OVCAR-3, with RXF 393, in the test with SK-MEL-2, with SK-MEL-5, in the test on SK-OV-3 and with SNB-19 was > 100 µM (inactive) in each case. The GI50 in the test with SW-620 and with TK-10 was > 100 µM (inactive) throughout.

Consider `CC1CC(c2ccccc2)Nc2nc3ccccc3n21` (stereo not given), for which the GI50 is > 100 µM (inactive) in the test on ACHN; > 100 µM (inactive) in the test with BT-549; > 100 µM (inactive) in the test on CCRF-CEM; > 100 µM (inactive) with COLO 205; 66.4 µM (inactive) with HCT-116; > 100 µM (inactive) with HL-60. Further, the GI50 in the test on K562, with LOX IMVI, in the test with MDA-MB-231, in the test with Malme-3M, in the test on NCI-H460 and in the test with NCI-H522 was > 100 µM (inactive) each time. The GI50 in the test with OVCAR-3, in the test with RXF 393, with SK-MEL-2, with SK-MEL-5, in the test with SK-OV-3 and in the test with SNB-19 was > 100 µM (inactive) throughout. For the same molecule, the GI50 with SW-620 and in the test on TK-10 was > 100 µM (inactive) in each case.

On to `Cc1cccc(NC(=S)Nc2cccc(Cl)c2)n1`, for which the GI50 in the test on ACHN, with BT-549, with CCRF-CEM, in the test with COLO 205, in the test with HCT-116 and in the test with HL-60 was > 100 µM (inactive) each time. Moreover, the GI50 with K562 is > 100 µM (inactive); in the test on LOX IMVI it was > 100 µM (inactive); in the test with MDA-MB-231, > 100 µM (inactive); in the test on Malme-3M, > 100 µM (inactive); in the test on NCI-H460, > 100 µM (inactive); in the test on NCI-H522 it was 49.9 µM (inactive). In addition, the GI50 was > 100 µM (inactive) in the test on OVCAR-3; 29.7 µM (inactive) in the test on RXF 393; > 72.8 µM (inactive) with SK-MEL-2; > 100 µM (inactive) in the test with SK-MEL-5; 41.9 µM (inactive) in the test with SK-OV-3; > 60.4 µM (inactive) with SNB-19. The GI50 with SW-620 and in the test on TK-10 was > 100 µM (inactive) each time.

Turning to `CCC(=O)OCOc1ccc(/C=C2\CCC(CN(C)C)C2=O)cc1` (stereo not given), the GI50 in the test on ACHN is 7.73 µM (inactive); in the test with BT-549, 2.05 µM (inactive); with CCRF-CEM it was 1.61 µM (inactive); with COLO 205, 3.78 µM (inactive); in the test on HCT-116 it was 2.74 µM (inactive); in the test with HL-60, 1.36 µM (inactive). Further, the GI50 with K562 is 1.85 µM (inactive); with LOX IMVI it was 1.94 µM (inactive); with MDA-MB-231, 3.67 µM (inactive); in the test on Malme-3M it was 3.96 µM (inactive); in the test with NCI-H460, 15.9 µM (inactive); in the test with NCI-H522, 1.93 µM (inactive). The GI50 in the test on OVCAR-3 was 3.7 µM (inactive); in the test with RXF 393, 3.44 µM (inactive); in the test on SK-MEL-2, 11 µM (inactive); in the test on SK-MEL-5, 11.7 µM (inactive); with SK-OV-3 it was 15.7 µM (inactive); in the test on SNB-19, 16.7 µM (inactive). The GI50 with SW-620 is 2.32 µM (inactive); in the test with TK-10, 9.12 µM (inactive).

Take `c1ccc(-c2nnn(CCN3CCCCC3)n2)cc1`: the GI50 in the test on ACHN, in the test on BT-549, with CCRF-CEM, with COLO 205, in the test on HCT-116 and in the test on HL-60 was > 100 µM (inactive) each time. The GI50 with K562, in the test with LOX IMVI, with MDA-MB-231, in the test with Malme-3M, in the test on NCI-H460 and with NCI-H522 was > 100 µM (inactive) each time. Also, the GI50 in the test with OVCAR-3, in the test on RXF 393, with SK-MEL-2, with SK-MEL-5, with SK-OV-3 and with SNB-19 was > 100 µM (inactive) each time. Besides, the GI50 with SW-620 and in the test with TK-10 was > 100 µM (inactive) in each case.

As to `O=C1N/C(=N\N=C\c2ccccc2)C2(CCCCC2)O1`, the GI50 was > 100 µM (inactive) with ACHN; > 100 µM (inactive) in the test on BT-549; 17.8 µM (inactive) with CCRF-CEM; 93.1 µM (inactive) in the test with COLO 205; 59.2 µM (inactive) in the test on HCT-116; 32.9 µM (inactive) with HL-60. For the same molecule, the GI50 in the test with K562 was 35 µM (inactive); in the test with LOX IMVI, 56.5 µM (inactive); in the test on MDA-MB-231, > 100 µM (inactive); in the test on Malme-3M it was > 100 µM (inactive); in the test on NCI-H460 it was 45 µM (inactive); in the test with NCI-H522, > 100 µM (inactive). The GI50 with OVCAR-3 is 44.9 µM (inactive); in the test on RXF 393, > 100 µM (inactive); with SK-MEL-2 it was > 100 µM (inactive); with SK-MEL-5 it was 55.8 µM (inactive); with SK-OV-3 it was > 100 µM (inactive); in the test on SNB-19 it was > 100 µM (inactive). The GI50 in the test on SW-620 was > 100 µM (inactive); in the test on TK-10 it was 74.6 µM (inactive).

Turning to `COC(=O)Nc1nc2cc(S(=O)(=O)N3CCOCC3)ccc2[nH]1`, the GI50 with ACHN is > 100 µM (inactive); in the test with BT-549, > 100 µM (inactive); with CCRF-CEM it was 52.8 µM (inactive); in the test on COLO 205, > 100 µM (inactive); in the test with HCT-116 it was > 100 µM (inactive); in the test with HL-60, 6.21 µM (inactive). Also, the GI50 in the test with K562 is 44.7 µM (inactive); in the test on LOX IMVI, > 100 µM (inactive); in the test on MDA-MB-231, > 100 µM (inactive); in the test on Malme-3M, > 100 µM (inactive); in the test on NCI-H460, > 100 µM (inactive); with NCI-H522, > 100 µM (inactive). For the same molecule, the GI50 with OVCAR-3, with RXF 393, with SK-MEL-2, with SK-MEL-5, in the test on SK-OV-3 and in the test on SNB-19 was > 100 µM (inactive) in each case. Moreover, the GI50 in the test with SW-620 was 54.1 µM (inactive); with TK-10, 80.2 µM (inactive).

In the case of `NC(=O)CO/N=C1/C(=C2/C(=O)Nc3ccccc32)Nc2ccccc21`, the GI50 in the test on ACHN is 3.48 µM (inactive); in the test on BT-549, 12.4 µM (inactive); in the test with CCRF-CEM, 11.5 µM (inactive); with COLO 205, 1.86 µM (inactive); in the test on HCT-116, 0.755 µM (active); in the test on HL-60, 1.96 µM (inactive). The GI50 in the test on K562 was 40 µM (inactive); in the test with LOX IMVI it was 1.04 µM (active); in the test with MDA-MB-231 it was > 100 µM (inactive); in the test with Malme-3M, > 100 µM (inactive); in the test on NCI-H460 it was 1.11 µM (active); with NCI-H522 it was > 100 µM (inactive). The GI50 was 4.49 µM (inactive) in the test on OVCAR-3; 0.491 µM (active) with RXF 393; 2.4 µM (inactive) in the test with SK-MEL-2; 1.49 µM (inactive) with SK-MEL-5; 0.522 µM (active) in the test with SK-OV-3; > 100 µM (inactive) in the test on SNB-19. For the same molecule, the GI50 with SW-620 was 4.95 µM (inactive); in the test on TK-10 it was 3.85 µM (inactive).
